The results in this text go back to patent US20160130278A1 (TAISHO PHARMACEUTICAL CO., LTD, priority 2013, published 2016).

The term IC50 denotes the concentration at which inhibition is half-maximal. Low readings indicate higher potency, high ones lower potency.

The target of this assay is T1, human type 1 glycine transporter (GlyT1) (Homo sapiens, UniProt P48067).
T1 construct: T98G cells (glioma cells) expressing human type 1 glycine transporter (GlyT1) were used
T1 sequence (P48067 1-706): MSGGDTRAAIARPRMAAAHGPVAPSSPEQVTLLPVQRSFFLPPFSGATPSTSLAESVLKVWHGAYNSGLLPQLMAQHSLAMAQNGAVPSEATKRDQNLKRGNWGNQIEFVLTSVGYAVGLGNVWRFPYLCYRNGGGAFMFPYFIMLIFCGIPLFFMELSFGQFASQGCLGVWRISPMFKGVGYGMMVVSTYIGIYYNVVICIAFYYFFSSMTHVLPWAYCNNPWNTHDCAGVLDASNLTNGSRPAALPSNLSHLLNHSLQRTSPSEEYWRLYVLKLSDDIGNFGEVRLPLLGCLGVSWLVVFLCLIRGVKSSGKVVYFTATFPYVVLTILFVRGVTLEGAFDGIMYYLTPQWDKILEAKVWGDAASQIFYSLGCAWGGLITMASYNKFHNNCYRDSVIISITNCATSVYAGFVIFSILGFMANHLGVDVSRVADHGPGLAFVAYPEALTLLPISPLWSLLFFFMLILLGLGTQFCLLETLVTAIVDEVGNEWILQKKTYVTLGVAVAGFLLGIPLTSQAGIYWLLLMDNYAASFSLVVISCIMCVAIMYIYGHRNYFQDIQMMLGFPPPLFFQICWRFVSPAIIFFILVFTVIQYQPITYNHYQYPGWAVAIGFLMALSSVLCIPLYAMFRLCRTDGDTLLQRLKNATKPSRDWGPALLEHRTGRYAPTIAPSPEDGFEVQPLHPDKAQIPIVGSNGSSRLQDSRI
Description: Glycine uptake inhibition experiment ([3H]glycine uptake). Type of assay: cell-based. Particulars: GlyT1. The method in brief: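 T98G glioma cells expressing human GlyT1 were pretreated 10 min with compound in HEPES buffer pH 7.4 (0.2% BSA), then incubated with compound plus 250 nM final [3H]glycine for 15 min at room temperature. Intracellular radioactivity was counted after NaOH lysis; 10 μM ALX5407 defined non-specific uptake. IC50 came from 10^−9–10^−5 M curves.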
For `O=C(NC(c1cccc(-c2cn[nH]c2)c1)C1(O)CCCC1)c1cccc(C(F)(F)F)c1Cl` (stereo not drawn) [Compound 9, 2-chloro-N-{(1-hydroxycyclopentyl)[3-(1H-pyrazol-4-yl)phenyl]methyl}-3-(trifluoromethyl)benzamide], the IC50 was determined as 110 nM.

`CCn1cc(-c2cccc(C(NC(=O)c3nccc(C(F)(F)F)c3Cl)C3(O)CCCC3)c2)cn1` (stereo not drawn) [Compound 10, 3-chloro-N-{[3-(1-ethyl-1H-pyrazol-4-yl)phenyl](1-hydroxycyclopentyl)methyl}-4-(trifluoromethyl)pyridine-2-carboxamide] returned an IC50 of 13 nM.

As for `O=C(NC(c1ccccc1)C1(O)CCCC1)c1cccc(C(F)(F)F)c1Cl` (stereo not drawn) [Compound 11, 2-chloro-N-[(1-hydroxycyclopentyl)(phenyl)methyl]-3-(trifluoromethyl)benzamide], the 50% inhibitory concentration (IC50) is 1000 nM.

In the case of `O=C(NC(c1ccccc1)C1(O)CCCC1)c1nccc(C(F)(F)F)c1Cl` (stereo not drawn) [Compound 12, 3-chloro-N-[(1-hydroxycyclopentyl)(phenyl)methyl]-4-(trifluoromethyl)pyridine-2-carboxamide], 480 nM corresponded to half-maximal inhibition (IC50).

Consider `CCn1cc(-c2cccc(C(NC(=O)c3nccc(C(F)(F)F)c3Cl)C3(O)CCCCC3)c2)cn1` (stereo not drawn) [Compound 15, 3-chloro-N-{[3-(1-ethyl-1H-pyrazol-4-yl)phenyl](1-hydroxycyclohexyl)methyl}-4-(trifluoromethyl)pyridine-2-carboxamide], for which the IC50 was 8.5 nM.

On to `CCn1cc(-c2cccc(C(NC(=O)c3cccc(C(F)(F)F)c3Cl)C3(O)CCCCC3)c2)cn1` (stereo not drawn) [Compound 16, 2-chloro-N-{[3-(1-ethyl-1H-pyrazol-4-yl)phenyl](1-hydroxycyclohexyl)methyl}-3-(trifluoromethyl)benzamide], for which the IC50 turned out to be 44 nM.

As for `O=C(NC(c1cccc(-c2cn[nH]c2)c1)C1(O)CCCC1)c1nccc(C(F)(F)F)c1Cl` (stereo not drawn) [Compound 17, 3-chloro-N-{(1-hydroxycyclopentyl)[3-(1H-pyrazol-4-yl)phenyl]methyl}-4-(trifluoromethyl)pyridine-2-carboxamide], the IC50 was found to be 14 nM.

Compound `O=C(NC(c1cccc(-c2cncnc2)c1)C1(O)CCCC1)c1nccc(C(F)(F)F)c1Cl` (stereo not drawn) [Compound 18, 3-chloro-N-{(1-hydroxycyclopentyl)[3-(pyrimidin-5-yl)phenyl]methyl}-4-(trifluoromethyl)pyridine-2-carboxamide] yielded an IC50 of 92 nM.

Regarding `O=C(NC(c1cccc(-c2ccncc2)c1)C1(O)CCCC1)c1nccc(C(F)(F)F)c1Cl` (stereo not drawn) [Compound 19, 3-chloro-N-{(1-hydroxycyclopentyl)[3-(pyridin-4-yl)phenyl]methyl}-4-(trifluoromethyl)pyridine-2-carboxamide], the IC50 worked out at 34 nM.

Regarding `O=C(NC(c1cccc(-c2cccnc2)c1)C1(O)CCCC1)c1nccc(C(F)(F)F)c1Cl` (stereo not drawn) [Compound 20, 3-chloro-N-{(1-hydroxycyclopentyl)[3-(pyridin-3-yl)phenyl]methyl}-4-(trifluoromethyl)pyridine-2-carboxamide], it took 17 nM to reach half-maximal inhibition (IC50).

`CCn1cc(-c2cccc(C(NC(=O)c3ncccc3Cl)C3(O)CCCC3)c2)cn1` (stereo not drawn) [Compound 21, 3-chloro-N-{[3-(1-ethyl-1H-pyrazol-4-yl)phenyl](1-hydroxycyclopentyl)methyl}pyridine-2-carboxamide] showed an IC50 of 4600 nM.

`CCn1cc(-c2cccc(C(NC(=O)c3nccc4ccccc34)C3(O)CCCC3)c2)cn1` (stereo not drawn) [Compound 22, N-{[3-(1-ethyl-1H-pyrazol-4-yl)phenyl](1-hydroxycyclopentyl)methyl}isoquinoline-1-carboxamide] came in with a half-inhibitory concentration (IC50) of 110 nM. This IC50 is about 42-fold lower than that of the compound before.

Take `N#Cc1cccc(C(NC(=O)c2nccc(C(F)(F)F)c2Cl)C2(O)CCCC2)c1` (stereo not drawn) [Compound 23, 3-chloro-N-[(3-cyanophenyl)(1-hydroxycyclopentyl)methyl]-4-(trifluoromethyl)pyridine-2-carboxamide]: the IC50 worked out at 300 nM.

Compound `O=C(NC(c1cccc(-c2cccnc2)c1)C1(O)CCCCC1)c1nccc(C(F)(F)F)c1Cl` (stereo not drawn) [Compound 26, 3-chloro-N-{(hydroxycyclohexyl)[3-(pyridin-3-yl)phenyl]methyl}-4-(trifluoromethyl)pyridine-2-carboxamide] yielded an IC50 of 80 nM. Compared with the last compound, the IC50 is about 3.8-fold lower.

Regarding `COc1cc(C(F)(F)F)cc(C(F)(F)F)c1C(=O)NC(c1ccccc1)C1(O)CCCC1` (stereo not drawn) [Compound 29, N-[(1-hydroxycyclopentyl)(phenyl)methyl]-2-methoxy-4,6-bis(trifluoromethyl)benzamide], the IC50 turned out to be 2000 nM.

`Cc1cccc(C)c1C(=O)NC(c1ccccc1)C1(O)CCCC1` (stereo not drawn) [Compound 30, N-[(1-hydroxycyclopentyl)(phenyl)methyl]-2,6-dimethylbenzamide] came in with an IC50 of 6500 nM.

Take `O=C(NC(c1cccc(Br)c1)C1(O)CCCC1)c1nccc(C(F)(F)F)c1Cl` (stereo not drawn) [Compound 31, N-[(3-bromophenyl)(1-hydroxycyclopentyl)metyl]-3-chloro-4-(trifluoromethyl)pyridine-2-carboxamide]: it took 170 nM to reach half-maximal inhibition (IC50).

For the compound `O=C(NC(c1ccccc1Br)C1(O)CCCC1)c1nccc(C(F)(F)F)c1Cl` (stereo not drawn) [Compound 32, N-[(2-bromophenyl)(1-hydroxycyclopentyl)methyl]-3-chloro-4-(trifluoromethyl)pyridine-2-carboxamide], it took 60 nM to reach half-maximal inhibition (IC50).

`O=C(N[C@@H](c1cccc(Br)c1)C1(O)CCCC1)c1nccc(C(F)(F)F)c1Cl` [Compound 33, N-[(S)-(3-bromophenyl)(1-hydroxycyclopentyl)methyl]-3-chloro-4-(trifluoromethyl)pyridine-2-carboxamide] yielded an IC50 of 82 nM. This IC50 and that of the compound before are within 1.5-fold of each other.

On to `O=C(N[C@H](c1cccc(Br)c1)C1(O)CCCC1)c1nccc(C(F)(F)F)c1Cl` [Compound 34, N-[(R)-(3-bromophenyl)(1-hydroxycyclopentyl)methyl]-3-chloro-4-(trifluoromethyl)pyridine-2-carboxamide], for which the midpoint of inhibition, the IC50, lay at 1000 nM.

`O=C(N[C@@H](c1cccc(-c2ccccn2)c1)C1(O)CCCC1)c1nccc(C(F)(F)F)c1Cl` [Compound 35, 3-chloro-N-{(S)-(1-hydroxycyclopentyl)[3-(pyridin-2-yl)phenyl]methyl}-4-(trifluoromethyl)pyridine-2-carboxamide] registered an IC50 of 74 nM.

`O=C(N[C@@H](c1cccc(-c2ncccn2)c1)C1(O)CCCC1)c1nccc(C(F)(F)F)c1Cl` [Compound 36, 3-chloro-N-{(S)-(1-hydroxycyclopentyl)[3-(pyrimidin-2-yl)phenyl]methyl}-4-(trifluoromethyl)pyridine-2-carboxamide] returned an IC50 of 130 nM. Against the preceding compound, the IC50 is about 1.8-fold higher.

On to `N#Cc1cccc([C@H](NC(=O)c2nccc(C(F)(F)F)c2Cl)C2(O)CCCC2)c1` [Compound 37, 3-chloro-N-[(S)-(3-cyanophenyl)(1-hydroxycyclopentyl)methyl]-4-(trifluoromethyl)pyridine-2-carboxamide], for which the IC50 is 260 nM.

The compound `O=C(NC(c1cccc(Br)c1)C1(O)CCCCC1)c1nccc(C(F)(F)F)c1Cl` (stereo not drawn) [Compound 38, N-[(3-bromophenyl)(1-hydroxycyclohexyl)methyl]-3-chloro-4-(trifluoromethyl)pyridine-2-carboxamide] returned an IC50 of 60 nM.

On to `O=C(NC(c1ccc(F)cc1)C1(O)CCCC1)c1nccc(C(F)(F)F)c1Cl` (stereo not drawn) [Compound 39, 3-chloro-N-[(4-fluorophenyl)(1-hydroxycyclopentyl)methyl]-4-(trifluoromethyl)pyridine-2-carboxamide], for which the IC50 turned out to be 1000 nM. This IC50 lies about 17-fold higher than the previous one.

In turn, `O=C(NC(c1cccc(F)c1)C1(O)CCCC1)c1nccc(C(F)(F)F)c1Cl` (stereo not drawn) [Compound 40, 3-chloro-N-[(3-fluorophenyl)(1-hydroxycyclopentyl)methyl]-4-(trifluoromethyl)pyridine-2-carboxamide] yielded an IC50 of 110 nM. Compared with the last compound, the IC50 is about 9.1-fold lower.

`O=C(NC(c1ccccc1F)C1(O)CCCC1)c1nccc(C(F)(F)F)c1Cl` (stereo not drawn) [Compound 41, 3-chloro-N-[(2-fluorophenyl)(1-hydroxycyclopentyl)methyl]-4-(trifluoromethyl)pyridine-2-carboxamide] gave an IC50 of 180 nM. Against the preceding compound, the IC50 is about 1.6-fold higher.

The compound `O=C(NC(c1ccccc1Cl)C1(O)CCCC1)c1nccc(C(F)(F)F)c1Cl` (stereo not drawn) [Compound 44, 3-chloro-N-[(2-chlorophenyl)(1-hydroxycyclopentyl)methyl]-4-(trifluoromethyl)pyridine-2-carboxamide] had an IC50 of 66 nM.

In turn, `O=C(NC(c1cccc(Cl)c1)C1(O)CCCC1)c1nccc(C(F)(F)F)c1Cl` (stereo not drawn) [Compound 45, 3-chloro-N-[(3-chlorophenyl)(1-hydroxycyclopentyl)methyl]-4-(trifluoromethyl)pyridine-2-carboxamide] yielded an IC50 of 90 nM.

For the compound `O=C(NC(c1ccc(Cl)cc1)C1(O)CCCC1)c1nccc(C(F)(F)F)c1Cl` (stereo not drawn) [Compound 46, 3-chloro-N-[(4-chlorophenyl)(1-hydroxycyclopentyl)methyl]-4-(trifluoromethyl)pyridine-2-carboxamide], the IC50 was 1700 nM.
